The source of these data is US20230250095A1, “BENZIMIDAZOLE DERIVATIVES, PREPARATION METHOD THEREFOR AND MEDICAL USE THEREOF” (TUOJIE BIOTECH(SHANGHAI) CO., LTD., priority 2020, published 2023).

Where two headings read alike, the source gives them in different places.

One data set addresses T1, CYP1A2 (Homo sapiens, UniProt P05177).
T1 construct: 150-donor pooled human liver microsomes (purchased from Corning, Cat. No. 452117); tissue Corning 452117; host or cells: 150-donor pooled human liver microsomes
T1 sequence (P05177 1-516): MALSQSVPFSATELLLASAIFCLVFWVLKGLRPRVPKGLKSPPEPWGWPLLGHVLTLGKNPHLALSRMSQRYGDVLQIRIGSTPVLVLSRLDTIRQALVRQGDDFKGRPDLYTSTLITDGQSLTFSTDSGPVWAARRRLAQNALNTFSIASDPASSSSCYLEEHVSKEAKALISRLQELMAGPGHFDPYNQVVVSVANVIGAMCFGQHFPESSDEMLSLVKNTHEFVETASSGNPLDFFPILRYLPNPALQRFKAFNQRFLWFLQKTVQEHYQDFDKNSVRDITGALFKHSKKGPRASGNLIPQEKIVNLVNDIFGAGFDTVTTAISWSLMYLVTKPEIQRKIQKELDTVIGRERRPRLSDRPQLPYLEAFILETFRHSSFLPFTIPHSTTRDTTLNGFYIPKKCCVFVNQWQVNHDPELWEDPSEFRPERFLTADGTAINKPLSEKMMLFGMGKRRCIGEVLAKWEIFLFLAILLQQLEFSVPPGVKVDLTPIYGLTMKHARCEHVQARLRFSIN
The data set is described as follows: CYP inhibition assay in pooled human liver microsomes (phenacetin). Format: in vitro ADME. The settings on record: human liver microsomes 0.2 mg/mL, substrate phenacetin; read-out: CYP 1A2 (μM) IC50. Here is the method:
(§1) The metabolic reactions of representative substrates of 5 major human CYP subtypes (CYP1A2, CYP2C9, CYP2C19, CYP2D6, CYP3A4/5) were evaluated using 150-donor pooled human liver microsomes (purchased from Corning, Cat. No. 452117). The effects of different concentrations of the test compounds on the metabolic reactions of phenacetin (CYP1A2), diclofenac sodium (CYP2C9), S-mephenytoin (CYP2C19), bufuralol hydrochloride (CYP2D6) and midazolam (CYP3A4/5) were determined by liquid chromatography-tandem mass spectrometry (LC/MS/MS).
(§2) 30 μM phenacetin, 10 μM diclofenac sodium, 35 μM S-mephenytoin, 5 μM bufuralol hydrochloride, 3 μM midazolam, 1 mM NADPH, and test compounds (at concentrations of 0.1 μmol/L, 0.3 μmol/L, 1 μmol/L, 3 μmol/L, 10 μmol/L, and 30 μmol/L, respectively) or positive compound or blank were incubated with 200 μL of a reaction system of pooled human liver microsomes (0.2 mg/mL) (100 mmol/L phosphate buffer, pH 7.4, containing 0.3% by volume of DMSO, 0.6% by volume of acetonitrile, and 0.1% by volume of methanol) at 37° C. for 5 min. Then, 200 μL of acetonitrile containing 3% formic acid and 40 nM internal standard verapamil was added, and the mixture was centrifuged at 4000 rpm for 50 min. The mixture was cooled on ice for 20 min and centrifuged at 4000 rpm for 20 min to precipitate the protein. 200 μL of the supernatant was analyzed by LC/MS/MS.
(§3) The peak area was calculated from the chromatogram. The residual activity rate (%) was calculated by the following formula:
(§4) peak area rate=peak area of metabolite/peak area of internal standard
(§5) residual activity rate (%)=peak area proportion of the test compound group/peak area proportion of the blank group
(§6) The half maximal inhibitory concentrations (IC50) against CYP were calculated by Excel XLfit 5.3.1.3.

In a further data set the test system is CYP3A4/5. The data set is described as follows: CYP inhibition assay in pooled human liver microsomes (midazolam). Type of data set: in vitro ADME. The settings on record: pH 7.4, probe midazolam (3 μM), human liver microsomes 0.2 mg/mL, substrate midazolam, read-out: CYP 3A4/5 (μM) IC50. Here is the method: as §1, §2, §3, §4, §5, §6
The target of a further data set is T2, CYP2C19 (Homo sapiens, UniProt P33261).
T2 construct: 150-donor pooled human liver microsomes (purchased from Corning, Cat. No. 452117); tissue Corning 452117; host or cells: 150-donor pooled human liver microsomes
T2 sequence (P33261 whole entry): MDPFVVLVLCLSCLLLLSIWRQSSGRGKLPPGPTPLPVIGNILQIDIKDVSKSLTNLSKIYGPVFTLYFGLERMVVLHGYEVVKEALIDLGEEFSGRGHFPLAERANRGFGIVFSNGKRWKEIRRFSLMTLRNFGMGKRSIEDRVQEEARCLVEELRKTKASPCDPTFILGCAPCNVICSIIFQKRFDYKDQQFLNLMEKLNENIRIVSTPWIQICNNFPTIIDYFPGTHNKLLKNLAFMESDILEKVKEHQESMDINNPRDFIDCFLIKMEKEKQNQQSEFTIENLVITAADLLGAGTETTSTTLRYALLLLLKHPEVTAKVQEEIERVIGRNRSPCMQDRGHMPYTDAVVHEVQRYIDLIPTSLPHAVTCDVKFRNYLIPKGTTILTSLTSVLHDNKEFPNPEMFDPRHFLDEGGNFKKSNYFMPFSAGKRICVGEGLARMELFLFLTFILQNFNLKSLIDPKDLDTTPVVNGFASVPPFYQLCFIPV
As to the kind of experiment: CYP inhibition assay in pooled human liver microsomes (S-mephenytoin). Type of data set: in vitro ADME. Here is the method: as §1, §2, §3, §4, §5, §6

A further data set concerns the target T3, hP2X3 (Homo sapiens, UniProt P56373).
T3 construct: host or cells: 1321N1 cells
T3 sequence (P56373 1-397): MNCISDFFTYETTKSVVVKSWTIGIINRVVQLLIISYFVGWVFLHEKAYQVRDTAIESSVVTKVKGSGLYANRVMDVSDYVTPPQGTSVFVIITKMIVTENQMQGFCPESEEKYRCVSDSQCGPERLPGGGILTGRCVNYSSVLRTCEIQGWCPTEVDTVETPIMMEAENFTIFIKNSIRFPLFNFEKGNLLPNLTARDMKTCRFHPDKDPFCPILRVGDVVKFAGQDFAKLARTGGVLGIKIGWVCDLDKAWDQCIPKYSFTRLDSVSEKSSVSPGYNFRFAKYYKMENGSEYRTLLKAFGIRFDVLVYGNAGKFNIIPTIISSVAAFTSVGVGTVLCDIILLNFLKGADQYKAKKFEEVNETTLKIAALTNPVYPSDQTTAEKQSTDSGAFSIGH
The data set is described as follows: FLIPR calcium flux assay, antagonistic activity against hP2X3 receptor. Type of data set: cell-based. The settings on record: 1321N1/hP2X3 cells, agonist α,β-meATP 500 nM. Here is the method:
The compounds were screened for antagonistic activity against hP2X3 and hP2X2/3 receptors (changes in calcium flux signals represent the effect of the compounds on ion channels) by an FLIPR assay.
1321N1 cells (adherent cells) stably transfected with hP2X3 and hP2X2/3 receptors were digested, centrifuged, resuspended in a plating medium (DMEM+10% DFBS) and counted, adjusted to 2×10^5 cells/mL. The cells were seeded in a 384-well assay plate at 50 μL/well, and incubated in an incubator at 37° C. with 5% CO2 for 16-24 h. Test compounds (20 mM DMSO stock solution) that were 180 times the desired concentration were prepared with DMSO, and added to a 384-well compound plate at 500 nL/well. Then, each well was supplemented with 30 μL of FLIPR buffer (lx HBSS containing 1.26 mM Ca^2++2 mM CaCl2)+20 mM HEPES), and the mixture was shaken for 20-40 min to be mixed well. The agonist α,β-meATP (final concentration of 500 nM for hP2X3 cells and final concentration of 1000 nM for hP2X2/3 cells) that was 3 times the desired concentration was prepared with an FLIPR buffer, and added to another 384-well compound plate at 35 μL/well. The cell plate in which cells had been plated and cultured for 16-24 h was taken out, and the cell supernatant was removed by pipetting. 30 μL of dye (FLIPR® calcium 4 assay kit, diluted with an FLIPR buffer) was added to each well, and the plate was incubated for 1 h. 15 μL of the compound was added to each well containing cells (dosing using an FLIPR instrument), and after 15 min, 22.5 μL of agonist was added to each well and the fluorescent signal was detected (excitation wavelength: 470-495 nm, emission wavelength: 515-575 nm). With the difference between the peak and the trough of the signal taken as the basic data, the data of the highest concentration of the positive drug taken as the 100% inhibition rate, and the data of DMSO taken as the 0% inhibition rate, the inhibition effect curves of the compounds were fitted on the software Graphpad Prism 6 and IC50 values were calculated.

[1] abbreviates: human liver microsomes 0.2 mg/mL, substrate S-mephenytoin, read-out: CYP 2C19 (μM) IC50.

In the case of `[2H]C([2H])([2H])c1ccc2c(c1)nc(-c1c(F)cc(N3CCCC3=O)cc1F)n2C[C@H]1CN(C(C)=O)CCO1` [Compound 14, (S)-1-(4-(1-((4-acetylmorpholin-2-yl)methyl)-5-(methyl-d3)-1H-benzo[d]imidazol-2-yl)-3,5-difluorophenyl)pyrrolidin-2-one], the IC50 is greater than 30 µM at CYP1A2, greater than 30 µM at CYP2C19 (setting [1]) and 33 nM at hP2X3. Moreover, the IC50 at 5 min with CYP3A4/5 is greater than 30 µM.
In the case of `CC(=O)N1CCO[C@@H](Cn2c(-c3c(F)cc(N4CCCC4=O)cc3Cl)nc3cc(C)ccc32)C1` [Compound 4, (S)-1-(4-(1-((4-acetylmorpholin-2-yl)methyl)-5-methyl-1H-benzo[d]imidazol-2-yl)-3-chloro-5-fluorophenyl)pyrrolidin-2-one], the IC50 is greater than 30 µM on CYP1A2, greater than 30 µM at CYP2C19 (setting [1]) and 31.6 nM at hP2X3. The IC50 at 5 min with CYP3A4/5 was greater than 30 µM.
Turning to `CC(=O)N1CCO[C@@H](Cn2c(-c3c(F)cc(N4CCCC4=O)cc3F)nc3cc(Cl)ccc32)C1` [Compound 10, (S)-1-(4-(1-((4-acetylmorpholin-2-yl)methyl)-5-chloro-1H-benzo[d]imidazol-2-yl)-3,5-difluorophenyl)pyrrolidin-2-one], the IC50 is greater than 30 µM at CYP1A2, greater than 30 µM on CYP2C19 (setting [1]) and 54.1 nM at hP2X3. Besides, the IC50 at 5 min in the data set on CYP3A4/5 was greater than 30 µM.
For `COC(=O)N1CCO[C@@H](Cc2c(-c3c(F)cc(N4CCCC4=O)cc3F)nc3cc(C)ccn23)C1` [Compound 9, Methyl (S)-2-((2-(2,6-difluoro-4-(2-carbonylpyrrolidin-1-yl)phenyl)-7-methylimidazo[1,2-a]pyridin-3-yl)methyl)morpholine-4-carboxylate], the IC50 is greater than 30 µM on CYP1A2, 12.9 µM against CYP2C19 and 75.8 nM at hP2X3. In addition, the IC50 at 5 min in the data set with CYP3A4/5 was determined as 12.9 µM.
As to `CC(=O)N1CCOC(Cn2c(-c3c(F)cc(N4CCCC4=O)cc3F)nc3cc(C)ccc32)C1` (stereo in doubt) [Compound 1], the figures for the IC50 on CYP1A2, at CYP2C19 (setting [1]) and at hP2X3 were greater than 30 µM, 13 µM and 36.8 nM, respectively. Besides, the IC50 at 5 min in the data set with CYP3A4/5 was greater than 30 µM.
Consider `CC(=O)N1CCO[C@@H](Cn2c(-c3ccc(N4CCCC4=O)cc3Cl)nc3cc(C)ccc32)C1` [Compound 3, (S)-1-(4-(1-((4-acetylmorpholin-2-yl)methyl)-5-methyl-1H-benzo[d]imidazol-2-yl)-3-chlorophenyl)pyrrolidin-2-one], for which the IC50 is greater than 30 µM on CYP1A2, greater than 30 µM at CYP2C19 (setting [1]) and 41.2 nM on hP2X3. Moreover, the IC50 at 5 min with CYP3A4/5 is greater than 30 µM.
For the compound `COC(=O)N1CCOC(Cn2c(-c3c(F)cc(N4CCCC4=O)cc3F)nc3cc(C)ccc32)C1` (stereo not shown) [Compound 2, Methyl 2-((2-(2,6-difluoro-4-(2-carbonylpyrrolidin-1-yl)phenyl)-5-methyl-1H-benzo[d]imidazol-1-yl)methyl)morpholine-4-carboxylate], the results for the IC50 on CYP1A2, on CYP2C19 (setting [1]) and on hP2X3 were greater than 30 µM, 14.6 µM and 105 nM, respectively. For the same compound, the IC50 at 5 min with CYP3A4/5 is greater than 30 µM.
